Reference: patent USRE47141E1, “Methods of treating fibrosis, cancer and vascular injuries” (EWHA University—Industry Collaboration Foundation, priority 2010, dated 2018)

Molecular target: ALK5 (Homo sapiens (Human), UniProt P36897)
Assay: Cell-free assay for inhibition of ALK5 kinase phosphorylation
Type: biochemical
Conditions: read-out: IC50 on ALK5 kinase phosphorylation

Sequence of ALK5 (P36897 34-503): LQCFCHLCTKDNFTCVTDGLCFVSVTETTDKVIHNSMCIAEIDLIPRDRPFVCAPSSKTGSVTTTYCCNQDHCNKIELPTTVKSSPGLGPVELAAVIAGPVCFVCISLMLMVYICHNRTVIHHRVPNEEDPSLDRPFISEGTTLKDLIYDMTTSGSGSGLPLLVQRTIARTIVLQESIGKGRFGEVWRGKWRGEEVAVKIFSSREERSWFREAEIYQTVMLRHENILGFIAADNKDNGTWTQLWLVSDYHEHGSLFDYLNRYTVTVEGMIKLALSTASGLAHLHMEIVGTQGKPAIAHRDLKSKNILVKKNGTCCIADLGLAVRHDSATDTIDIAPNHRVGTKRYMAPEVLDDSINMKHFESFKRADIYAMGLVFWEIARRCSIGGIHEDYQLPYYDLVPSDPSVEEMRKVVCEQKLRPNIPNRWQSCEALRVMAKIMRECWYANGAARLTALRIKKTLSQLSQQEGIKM

IC50 [nM]	Structure (SMILES)
13.1	Cc1cccc(-c2[nH]c(CNc3ccccc3)nc2-c2ccc3ncnn3c2)n1 [Example 1, N-((4-([1,2,4]triazolo[1,5-a]pyridin-6-yl)-5-(6-methylpyridin-2-yl)-1H-imidazol-2-yl)methyl)aniline]
9.41	Cc1cccc(-c2[nH]c(CNc3cccc(F)c3)nc2-c2ccc3ncnn3c2)n1 [Example 5, N-((4-([1,2,4]triazolo[1,5-a]pyridin-6-yl)-5-(6-methylpyridin-2-yl)-1H-imidazol-2-yl)methyl)-3-fluoroaniline]
17.4	Cc1cccc(-c2[nH]c(CNc3ccc(F)cc3)nc2-c2ccc3ncnn3c2)n1 [Example 6, N-((4-([1,2,4]triazolo[1,5-a]pyridin-6-yl)-5-(6-methylpyridin-2-yl)-1H-imidazol-2-yl)methyl)-4-fluoroaniline]
8.96	Cc1cccc(-c2[nH]c(CNc3cccc(F)c3F)nc2-c2ccc3ncnn3c2)n1 [Example 7, N-((4-([1,2,4]triazolo[1,5-a]pyridin-6-yl)-5-(6-methylpyridin-2-yl)-1H-imidazol-2-yl)methyl)-2,3-difluoroaniline]
9.84	Cc1cccc(-c2[nH]c(CNc3ccc(F)c(F)c3)nc2-c2ccc3ncnn3c2)n1 [Example 8, N-((4-([1,2,4]triazolo[1,5-a]pyridin-6-yl)-5-(6-methylpyridin-2-yl)-1H-imidazol-2-yl)methyl)-3,4-difluoroaniline]
6.39	Cc1cccc(-c2[nH]c(CNc3cc(F)cc(F)c3)nc2-c2ccc3ncnn3c2)n1 [Example 9, N-((4-([1,2,4]triazolo[1,5-a]pyridin-6-yl)-5-(6-methylpyridin-2-yl)-1H-imidazol-2-yl)methyl)-3,5-difluoroaniline]
9.41	Cc1cccc(-c2[nH]c(CNc3ccccc3Cl)nc2-c2ccc3ncnn3c2)n1 [Example 10, N-((4-([1,2,4]triazolo[1,5-a]pyridin-6-yl)-5-(6-methylpyridin-2-yl)-1H-imidazol-2-yl)methyl)-2-chloroaniline]
6.16	Cc1cccc(-c2[nH]c(CNc3cccc(Cl)c3)nc2-c2ccc3ncnn3c2)n1 [Example 12, N-((4-([1,2,4]triazolo[1,5-a]pyridin-6-yl)-5-(6-methylpyridin-2-yl)-1H-imidazol-2-yl)methyl)-3-chloroaniline]
10.7	Cc1cccc(-c2[nH]c(CNc3ccc(Cl)cc3)nc2-c2ccc3ncnn3c2)n1 [Example 14, N-((4-([1,2,4]triazolo[1,5-a]pyridin-6-yl)-5-(6-methylpyridin-2-yl)-1H-imidazol-2-yl)methyl)-4-chloroaniline]
12.3	Cc1cccc(-c2[nH]c(CNc3cccc(Cl)c3Cl)nc2-c2ccc3ncnn3c2)n1 [Example 15, N-((4-([1,2,4]triazolo[1,5-a]pyridin-6-yl)-5-(6-methylpyridin-2-yl)-1H-imidazol-2-yl)methyl)-2,3-dichloroaniline]
7.54	Cc1cccc(-c2[nH]c(CNc3ccc(Cl)c(Cl)c3)nc2-c2ccc3ncnn3c2)n1 [Example 16, N-((4-([1,2,4]triazolo[1,5-a]pyridin-6-yl)-5-(6-methylpyridin-2-yl)-1H-imidazol-2-yl)methyl)-3,4-dichloroaniline]
14.6	Cc1cccc(-c2[nH]c(CNc3cc(Cl)cc(Cl)c3)nc2-c2ccc3ncnn3c2)n1 [Example 17, N-((4-([1,2,4]triazolo[1,5-a]pyridin-6-yl)-5-(6-methylpyridin-2-yl)-1H-imidazol-2-yl)methyl)-3,5-dichloroaniline]
6.54	Cc1cccc(-c2[nH]c(CNc3ccccc3Br)nc2-c2ccc3ncnn3c2)n1 [Example 18, N-((4-([1,2,4]triazolo[1,5-a]pyridin-6-yl)-5-(6-methylpyridin-2-yl)-1H-imidazol-2-yl)methyl)-2-bromoaniline]
4.53	Cc1cccc(-c2[nH]c(CNc3cccc(Br)c3)nc2-c2ccc3ncnn3c2)n1 [Example 20, N-((4-([1,2,4]triazolo[1,5-a]pyridin-6-yl)-5-(6-methylpyridin-2-yl)-1H-imidazol-2-yl)methyl)-3-bromoaniline]
17.1	Cc1cccc(-c2[nH]c(CNc3ccc(Br)cc3)nc2-c2ccc3ncnn3c2)n1 [Example 22, N-((4-([1,2,4]triazolo[1,5-a]pyridin-6-yl)-5-(6-methylpyridin-2-yl)-1H-imidazol-2-yl)methyl)-4-bromoaniline]
13.9	Cc1cccc(-c2[nH]c(CNc3ccccc3C)nc2-c2ccc3ncnn3c2)n1 [Example 23, N-((4-([1,2,4]triazolo[1,5-a]pyridin-6-yl)-5-(6-methylpyridin-2-yl)-1H-imidazol-2-yl)methyl)-2-methylaniline]
9.07	Cc1cccc(NCc2nc(-c3ccc4ncnn4c3)c(-c3cccc(C)n3)[nH]2)c1 [Example 24, N-((4-([1,2,4]triazolo[1,5-a]pyridin-6-yl)-5-(6-methylpyridin-2-yl)-1H-imidazol-2-yl)methyl)-3-methylaniline]
15.6	Cc1ccc(NCc2nc(-c3ccc4ncnn4c3)c(-c3cccc(C)n3)[nH]2)cc1 [Example 26, N-((4-([1,2,4]triazolo[1,5-a]pyridin-6-yl)-5-(6-methylpyridin-2-yl)-1H-imidazol-2-yl)methyl)-4-methylaniline]

IC50 [nM]	Structure (SMILES)
18	Cc1cccc(-c2[nH]c(CNc3cccc(C)c3C)nc2-c2ccc3ncnn3c2)n1 [Example 27, N-((4-([1,2,4]triazolo[1,5-a]pyridin-6-yl)-5-(6-methylpyridin-2-yl)-1H-imidazol-2-yl)methyl)-2,3-dimethylaniline]
17.4	Cc1cccc(-c2[nH]c(CNc3ccc(C)c(C)c3)nc2-c2ccc3ncnn3c2)n1 [Example 28, N-((4-([1,2,4]triazolo[1,5-a]pyridin-6-yl)-5-(6-methylpyridin-2-yl)-1H-imidazol-2-yl)methyl)-3,4-dimethylaniline]
14.3	Cc1cc(C)cc(NCc2nc(-c3ccc4ncnn4c3)c(-c3cccc(C)n3)[nH]2)c1 [Example 29, N-((4-([1,2,4]triazolo[1,5-a]pyridin-6-yl)-5-(6-methylpyridin-2-yl)-1H-imidazol-2-yl)methyl)-3,5-dimethylaniline]
10.6	CCc1ccccc1NCc1nc(-c2ccc3ncnn3c2)c(-c2cccc(C)n2)[nH]1 [Example 30, N-((4-([1,2,4]triazolo[1,5-a]pyridin-6-yl)-5-(6-methylpyridin-2-yl)-1H-imidazol-2-yl)methyl)-2-ethylaniline]
8.01	CCc1cccc(NCc2nc(-c3ccc4ncnn4c3)c(-c3cccc(C)n3)[nH]2)c1 [Example 31, N-((4-([1,2,4]triazolo[1,5-a]pyridin-6-yl)-5-(6-methylpyridin-2-yl)-1H-imidazol-2-yl)methyl)-3-ethylaniline]
14.2	Cc1cccc(-c2[nH]c(CNc3ccccc3C(C)C)nc2-c2ccc3ncnn3c2)n1 [Example 33, N-((4-([1,2,4]triazolo[1,5-a]pyridin-6-yl)-5-(6-methylpyridin-2-yl)-1H-imidazol-2-yl)methyl)-2-isopropylaniline]
16.2	Cc1cccc(-c2[nH]c(CNc3cccc(C(C)C)c3)nc2-c2ccc3ncnn3c2)n1 [Example 34, N-((4-([1,2,4]triazolo[1,5-a]pyridin-6-yl)-5-(6-methylpyridin-2-yl)-1H-imidazol-2-yl)methyl)-3-isopropylaniline]
46	Cc1cccc(-c2[nH]c(CNc3ccc(C(C)C)cc3)nc2-c2ccc3ncnn3c2)n1 [Example 35, N-((4-([1,2,4]triazolo[1,5-a]pyridin-6-yl)-5-(6-methylpyridin-2-yl)-1H-imidazol-2-yl)methyl)-4-isopropylaniline]
14.2	C=Cc1ccccc1NCc1nc(-c2ccc3ncnn3c2)c(-c2cccc(C)n2)[nH]1 [Example 36, N-((4-([1,2,4]triazolo[1,5-a]pyridin-6-yl)-5-(6-methylpyridin-2-yl)-1H-imidazol-2-yl)methyl)-2-vinylaniline]
11.9	C=Cc1cccc(NCc2nc(-c3ccc4ncnn4c3)c(-c3cccc(C)n3)[nH]2)c1 [Example 37, N-((4-([1,2,4]triazolo[1,5-a]pyridin-6-yl)-5-(6-methylpyridin-2-yl)-1H-imidazol-2-yl)methyl)-3-vinylaniline]
29.6	C=Cc1ccc(NCc2nc(-c3ccc4ncnn4c3)c(-c3cccc(C)n3)[nH]2)cc1 [Example 40, N-((4-([1,2,4]triazolo[1,5-a]pyridin-6-yl)-5-(6-methylpyridin-2-yl)-1H-imidazol-2-yl)methyl)-4-vinylaniline]
14.4	COc1ccccc1NCc1nc(-c2ccc3ncnn3c2)c(-c2cccc(C)n2)[nH]1 [Example 42, N-((4-([1,2,4]triazolo[1,5-a]pyridin-6-yl)-5-(6-methylpyridin-2-yl)-1H-imidazol-2-yl)methyl)-2-methoxyaniline]
14.3	COc1cccc(NCc2nc(-c3ccc4ncnn4c3)c(-c3cccc(C)n3)[nH]2)c1 [Example 43, N-((4-([1,2,4]triazolo[1,5-a]pyridin-6-yl)-5-(6-methylpyridin-2-yl)-1H-imidazol-2-yl)methyl)-3-methoxyaniline]
48.1	COc1ccc(NCc2nc(-c3ccc4ncnn4c3)c(-c3cccc(C)n3)[nH]2)cc1 [Example 44, N-((4-([1,2,4]triazolo[1,5-a]pyridin-6-yl)-5-(6-methylpyridin-2-yl)-1H-imidazol-2-yl)methyl)-4-methoxyaniline]
57.5	COc1cccc(NCc2nc(-c3ccc4ncnn4c3)c(-c3cccc(C)n3)[nH]2)c1OC [Example 45, N-((4-([1,2,4]triazolo[1,5-a]pyridin-6-yl)-5-(6-methylpyridin-2-yl)-1H-imidazol-2-yl)methyl)-2,3-dimethoxyaniline]
44.2	COc1ccc(NCc2nc(-c3ccc4ncnn4c3)c(-c3cccc(C)n3)[nH]2)cc1OC [Example 46, N-((4-([1,2,4]triazolo[1,5-a]pyridin-6-yl)-5-(6-methylpyridin-2-yl)-1H-imidazol-2-yl)methyl)-3,4-dimethoxyaniline]
14.4	COc1cc(NCc2nc(-c3ccc4ncnn4c3)c(-c3cccc(C)n3)[nH]2)cc(OC)c1 [Example 47, N-((4-([1,2,4]triazolo[1,5-a]pyridin-6-yl)-5-(6-methylpyridin-2-yl)-1H-imidazol-2-yl)methyl)-3,5-dimethoxyaniline]
